# Test results published in patent US20110144029A1, “Model Systems and Materials for the Study and Treatment of Neurodegenerative Diseases” (BOARD OF REGENTS, THE UNIVERSITY OF TEXAS SYSTEM, priority 2009, published 2011).
# Entries after “also recorded” stand apart in the source; their conditions may differ. Where a SMILES comes first, the peptide text is derived from it. [ ]: non-standard residue; d: D form.
# Tests used:
# [1] = previously shown [19, 20]; cited from earlier work
# [2] = Polymerization kinetics by Thioflavin S (ThS) fluorescence in the presence of heparin; assay type: physicochemical; conditions: for A (first phase / growth curve): ST-peptide according to Eqn. [2]
# Experimental: Aggregation kinetics of T-peptide (filled triangles), V-peptide (filled diamonds), F-peptide (X), Core peptide (open triangles), VV-peptide (open diamonds) and K-peptide (filled circles). […] Solid lines represent fitted values;
# Kinetic analysis: Polymerization kinetics were measured by monitoring the increase in Thioflavin S (ThS) fluorescence at 490 nm (440 nm excitation). Slit widths were 15 and 20 nm respectively for excitation and emission. All measurements were carried out at 21° C. with a Perkin Elmer LS50B spectrofluorimeter using a 75 μL quartz cell. Data points were collected at 6 s intervals over the course of the experiment (60 min). In order to initiate polymerization a freshly filtered stock solution was diluted to 10 μM in 200 μL of Buffer A containing 33 μM heparin (Sigma-Aldrich; 3,000 MW) and 100 μM Thioflavin S (ThS). Kinetics data, corrected for the blank, were fit using a non-linear least squares algorithm to a Gompertz-like growth curve {{260 Necula, M. 2004}} (Eqn.)
# where y is defined as the fluorescence signal at time t, ti corresponds to the inflection point of the curve, or the time of maximum growth rate, A is the maximum fluorescence observed for a given sample, and b=1/k, where k is the rate constant of aggregation, in units of s^−1. Lag-times were calculated as ti−b. The pre-growth curve exponential, e^(−k′t) was inserted to take into account the slow decrease in fluorescent intensity resulting from ThS bleaching, quenching and gravitational precipitation of the amyloid-ThS complex. Standard errors in fitted parameters were estimated assuming a 10% error in the sum of the squares.
# [3] = Transmission electron microscopy (TEM) of peptide aggregates; assay type: physicochemical; conditions: 100 μM peptide in Buffer A, uranyl acetate stain
# Experimental: All peptides were prepared at 100 μM in Buffer A and stained with uranyl acetate;
# Transmission Electron Microscopy (TEM): Filtered stock peptide solutions were diluted to 100 μM in 5 mM MOPS containing 0.1% NaN3, 0.15 M NaCl, pH 7.2 (Buffer A) and were incubated at room temperature overnight. Samples were loaded onto carbon-coated Formvar copper grids (200 mesh) and stained with 2% wt/wt uranyl acetate. A JEOL 1200 EX scope interfaced to a digital camera was used to visualize samples.
# culture = test: Neurotoxicity of non-tau related aggregating peptides in culture; assay type: cell-based; conditions: FIG. 13
# From the text: FIG. 13 is an image of the non-tau related aggregating peptides are not neurotoxic.
# [4] = system: cerebellar granule neurons; test: Live/Dead (Red/Green) viability assay in cultured cerebellar granule neurons; assay type: cell-based, rat; conditions: 24 h peptide treatment, HK medium
# Experimental: Neuronal cultures were switched to serum-free medium T-peptide, K-peptide, Core-peptide, V-peptide. VV-peptide, and T (L)-peptide. All peptides were used at 25 μM concentration. Phase contrast micrographs show appearance of the cultures after 24 h of peptide treatment. The Live/Dead viability assay was also performed. Nuclei of dead cells are stained red whereas cytoplasm of living cells are stained green. In the case of sick and dying cells, green staining is condensed;
# (§1) Cerebellar granule neurons were switched to serum-free medium containing various concentrations of T-peptide, K-peptide, Core-peptide, V-peptide, VV-peptide, and T (L)-peptide. Cell viability was measured using two independent methods 24 h after peptide treatment and results are graphed. * indicates p<0.05 compared with control cells that were treated with HK: (4A) Results from Red/Green viability assay, (4B) Results from MTT assay;
# Culturing and treatment of neurons: Cerebellar granule neurons were cultured from 7-8 day old rats as previously described. The neurons were plated in 24-well with poly-L-lysine coated glass coverslips at a density of ˜1 million cells/well in Basal Eagle's Medium with Earle's salts (BME) supplemented with 10% FCS, 25 mM KCl, 2 mM glutamine and […] gentamicin. To prevent mitosis of glial cells, cytosine arabinofuranoside ([…]) was added to culture 16-20 hrs after plating. Neuronal cultures were treated with peptides 6-7 days after plating. For treatment, the cultures were switched to serum-free medium containing 25 mM KCl (referred to as high potassium or HK medium). Although serum is required for proper maturation, after 5 days in culture, the neurons survive normally in the absence of serum provided depolarizing levels of KCl is added.
# Cell viability quantification: Cell viability was quantified using the Live/Dead assays with a commercially available kit (Invitrogen). This is a two-color fluorescence assay utilizing two cell-permeable compounds, calcein acetoxymethyl (calcein AM) and ethidium homodimer-1 (EthD-1). Live cells have intracellular esterases that convert non-fluorescent calcein AM to the intensely green fluorescent calcein, which is retained within the cytoplasm of cells. Because dead cells have damaged membranes, EthD-1 enters and is fluorescent when bound to nucleic acids. EthD-1 stains the nuclei of damaged or dead cells. As recommended by the manufacturer, cells plated in wells with cover-slips were incubated in Live/Dead reagent (1 uM calcein AM and 4 uM EthD-1) for 30 min, and then mounted on slides. Cell viability was also analyzed using the MTT [3-(4,5-Dimethylthiazol-2-yl)-2,5-diphenyltetrazolium bromide] assay based on the evaluation of mitochondrial function. MTT assays were performed as previously described. Briefly, MTT (5 mg/ml in culture medium) was added to the culture medium and the cells incubated at 37° C. for 1 h. The assay was stopped by adding lysis buffer [20% sodium dodecyl sulfate (SDS) in 50% N,N-dimethylformamide, pH 4.7]. Absorbance was measured spectrophotometrically at 570 nm after an overnight incubation at room temperature.
# [5] = system: cerebellar granule neurons; test: MTT assay in cerebellar granule neurons; assay type: cell-based, rat; conditions: 24 h peptide treatment
# Experimental: as §1
# Culturing and treatment of neurons: Cerebellar granule neurons were cultured from 7-8 day old rats as previously described. The neurons were plated in 24-well with poly-L-lysine coated glass coverslips at a density of ˜1 million cells/well in Basal Eagle's Medium with Earle's salts (BME) supplemented with 10% FCS, 25 mM KCl, 2 mM glutamine and […] gentamicin. […]
# Cell viability quantification: Cell viability was quantified using the Live/Dead assays with a commercially available kit (Invitrogen). This is a two-color fluorescence assay utilizing two cell-permeable compounds, calcein acetoxymethyl (calcein AM) and ethidium homodimer-1 (EthD-1). […] Cell viability was also analyzed using the MTT [3-(4,5-Dimethylthiazol-2-yl)-2,5-diphenyltetrazolium bromide] assay based on the evaluation of mitochondrial function. […] Absorbance was measured spectrophotometrically at 570 nm after an overnight incubation at room temperature.
compound,measurement,setting,value
Ac-^306VQIVYK^311-NH2 [AcPHF6],critical concentration above which peptide polymerizes into amyloid fibrils,[1],about 2 μM
"SQIVYA-R9 (SQIVYARRRRRRRRR) [SQ-peptide, de novo non-tau aggregating peptide]",A (first phase / growth curve),[2]; ThS fluorescence,8.8
same,morphology of aggregates,[3],irregular non-uniform filaments similar to V-peptide
same,neurotoxicity in culture,culture,neither of these two peptides displayed neurotoxicity
"CC(=O)N[C@@H](C(=O)N[C@H](CCC(N)=O)C(=O)N[C@@H](C(=O)N[C@@H](C(=O)N[C@H](Cc1ccc(O)cc1)C(=O)N[C@H](CCCCN)C(=O)N[C@@H](CCCNC(=N)N)C(=O)N[C@@H](CCCNC(=N)N)C(=O)N[C@@H](CCCNC(=N)N)C(=O)N[C@@H](CCCNC(=N)N)C(=O)N[C@@H](CCCNC(=N)N)C(=O)N[C@@H](CCCNC(=N)N)C(=O)N[C@@H](CCCNC(=N)N)C(=O)N[C@@H](CCCNC(=N)N)C(=O)N[C@@H](CCCNC(=N)N)C(N)=O)C(C)C)C(C)C)C(C)C [V-peptide, Ac-vqvvyk-R9—NH2]",neurotoxicity / effect on neuronal survival,[4],moderate level of cell death
Ac-VQIVFK-R9—NH2 (Ac-VQIVFKRRRRRRRRR-NH2) [F-peptide],"A (maximum fluorescence, fitted kinetic parameter)","[2]; 10 μM peptide, 33 μM heparin, 100 μM ThS, Buffer A pH 7.2, 21° C., NA = no aggregation observed by ThS fluorescence, ±10% error",5.5
same,self-aggregation in vitro,"[2]; ThS fluorescence, heparin, 10 μM concentration",aggregate in a fashion similar to the Core peptide; also recorded: capable of self-aggregation in vitro
same,neurotoxicity / effect on neuronal survival,[4],induces toxicity
"CC(=O)N[C@@H](C(=O)N[C@H](CCC(N)=O)C(=O)N[C@@H](C(=O)N[C@@H](C(=O)N[C@@H](C(=O)N[C@H](CCCCN)C(=O)N[C@@H](CCCNC(=N)N)C(=O)N[C@@H](CCCNC(=N)N)C(=O)N[C@@H](CCCNC(=N)N)C(=O)N[C@@H](CCCNC(=N)N)C(=O)N[C@@H](CCCNC(=N)N)C(=O)N[C@@H](CCCNC(=N)N)C(=O)N[C@@H](CCCNC(=N)N)C(=O)N[C@@H](CCCNC(=N)N)C(=O)N[C@@H](CCCNC(=N)N)C(N)=O)C(C)C)C(C)C)C(C)C)C(C)C [VV-peptide, Ac-vqvvvkR9—NH2]",neurotoxicity / effect on neuronal survival,[4],neither K-peptide nor VV-peptide reduced neuronal survival
"STVIIE-R9 (STVIIERRRRRRRRR) [ST-peptide, non-tau aggregating peptide previously described by Pastor et al, reference compound]",lag time,[2]; ThS fluorescence,~3000 s
same,A (first phase / growth curve),[2]; ThS fluorescence,4.9
same,A′ (second period of more rapid aggregation),[2]; according to Eqn. [2],6.3
same,diameter of fibrils / filaments / amyloid bodies / fibers,[3]; overnight,10-40 nm
same,morphology of aggregates,[3],amyloid sheets which appear to roll into irregular fibers
same,neurotoxicity in culture,culture,neither of these two peptides displayed neurotoxicity
"CC[C@@H](C)[C@@H](NC(=O)[C@@H](CCC(N)=O)NC(=O)[C@H](NC(C)=O)C(C)C)C(=O)N[C@@H](C(=O)N[C@H](CCCCN)C(=O)N[C@H](CCCCN)C(=O)N[C@@H](CCCNC(=N)N)C(=O)N[C@@H](CCCNC(=N)N)C(=O)N[C@@H](CCCNC(=N)N)C(=O)N[C@@H](CCCNC(=N)N)C(=O)N[C@@H](CCCNC(=N)N)C(=O)N[C@@H](CCCNC(=N)N)C(=O)N[C@@H](CCCNC(=N)N)C(=O)N[C@@H](CCCNC(=N)N)C(=O)N[C@@H](CCCNC(=N)N)C(N)=O)C(C)C [K-peptide, Ac-vqivkk-R9—NH2]",neurotoxicity / effect on neuronal survival,[4],neither K-peptide nor VV-peptide reduced neuronal survival
"CC(=O)N[C@@H](CCCNC(=N)N)C(=O)N[C@@H](CCCNC(=N)N)C(=O)N[C@@H](CCCNC(=N)N)C(=O)N[C@@H](CCCNC(=N)N)C(=O)N[C@@H](CCCNC(=N)N)C(=O)N[C@@H](CCCNC(=N)N)C(=O)N[C@@H](CCCNC(=N)N)C(=O)N[C@@H](CCCNC(=N)N)C(=O)N[C@@H](CCCNC(=N)N)C(N)=O [Ac—R9—NH2, reference compound]",neurotoxicity / effect on neuronal survival,[4],no effect on neuronal survival
"CC[C@@H](C)[C@@H](NC(=O)[C@@H](CCC(N)=O)NC(=O)[C@H](NC(C)=O)C(C)C)C(=O)N[C@@H](C(=O)N[C@H](Cc1ccc(O)cc1)C(=O)N[C@H](CCCCN)C(N)=O)C(C)C [Core-peptide, Ac-vqivyk-NH2] (Ac-[dV][dQ][dI][dV][dY][dK]-NH2)",neurotoxicity / effect on neuronal survival,[4],not toxic
same,"MTT assay result (mitochondrial function, words)",[5],mitochondrial dysfunction
